Legend:
[1] = biological target: T1, recombinant human ALK5 (TGF-βR1) protein (Homo sapiens, UniProt P36897); assay: Biochemical ALK5 (TGF-βR1) assay to measure pKi (LANCE Ultra ULight kinase assay); conditions: apparent pKi from pIC50 by Cheng-Prusoff, read-out: ALK5 pKi (converted)
T1 construct: purchased Life Technologies PR9075A
T1 sequence (P36897 34-503): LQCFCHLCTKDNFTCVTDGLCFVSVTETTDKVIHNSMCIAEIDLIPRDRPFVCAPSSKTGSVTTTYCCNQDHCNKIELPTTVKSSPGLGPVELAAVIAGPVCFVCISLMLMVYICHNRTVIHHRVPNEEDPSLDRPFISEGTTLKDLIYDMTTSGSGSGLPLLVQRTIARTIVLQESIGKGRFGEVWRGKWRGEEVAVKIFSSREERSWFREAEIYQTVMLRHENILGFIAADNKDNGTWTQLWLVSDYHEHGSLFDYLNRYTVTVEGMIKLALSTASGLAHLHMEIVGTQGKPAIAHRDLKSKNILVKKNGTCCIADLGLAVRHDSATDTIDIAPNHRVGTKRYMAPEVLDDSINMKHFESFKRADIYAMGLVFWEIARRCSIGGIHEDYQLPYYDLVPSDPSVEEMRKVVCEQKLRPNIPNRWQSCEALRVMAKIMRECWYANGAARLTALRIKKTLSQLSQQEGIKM
Procedure, shortened: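 Compounds (10 μM to 25 pM) were preincubated 60 min at room temperature with enzyme, then reactions were started with ATP (125 μM stock, 5× final) and run 60 min at 37 °C. EDTA-containing Eu-anti-phospho-Topo IIα (Thr1342) antibody stopped the reaction; TR-FRET read at 665 nm. pIC50 from 4-parameter fit, converted to pKi via Cheng-Prusoff.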

[2] = test system: TGF-β-stimulated SMAD3 phosphorylation in BEAS-2B cells; assay: Cellular ALK5 potency assay, inhibition of TGF-β stimulated pSMAD3 formation in BEAS-2B cells; format: cell-based; conditions: Homo sapiens; inhibition of TGF-β stimulated pSMAD3 formation, BEAS-2B cells; read-out: BEAS2B pIC50 (converted)
Procedure, shortened: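 Cells seeded overnight; rinse with supplemented HBSS; compound 1 h at 37 °C; TGF-β 10 ng/mL final, 30 min; lyse; AlphaLISA acceptor and detector beads 2 h apart, read next day. Potency expressed as pIC50.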

For Cc1cccc(-c2[nH]cnc2-c2ccc3ncc(N4CCC(C(=O)OC5CNC5)CC4)cc3c2)n1 [Compound 705, azetidin-3-yl 1-[6-[5-(6-methyl-2-pyridyl)-1H-imidazol-4-yl]-3-quinolyl]piperidine-4-carboxylate], the Ki [1] was 0.0398 to 0.316 nM and the IC50 [2] was 200 to 1260 nM.

Compound COC(=O)[C@H]1CCCCN1CCNc1cnc2ccc(-c3nc[nH]c3-c3cccc(C)n3)cc2c1 [Compound 706, methyl (2R)-1-[2-[[6-[5-(6-methyl-2-pyridyl)-1H-imidazol-4-yl]-3-quinolyl]amino]ethyl]piperidine-2-carboxylate] has a Ki [1] of 0.0398 to 0.316 nM and an IC50 [2] of 25.1 to 158 nM.

Cc1cccc(-c2[nH]cnc2-c2ccc3ncc(-c4cccc(C(=O)O[C@H]5CCNC5)c4)cc3c2)n1 [Compound 707, [(3S)-pyrrolidin-3-yl] 3-[6-[5-(6-methyl-2-pyridyl)-1H-imidazol-4-yl]-3-quinolyl]benzoate] gave a Ki [1] of 0.0398 to 0.316 nM and an IC50 [2] of 25.1 to 158 nM.

Cc1cccc(-c2[nH]cnc2-c2ccc3ncc(NCCN4CCN[C@@H](CO)C4)cc3c2)n1 [Compound 708, [(2R)-4-[2-[[6-[5-(6-methyl-2-pyridyl)-1H-imidazol-4-yl]-3-quinolyl]amino]ethyl]piperazin-2-yl]methanol] showed a Ki [1] of 0.0398 to 0.316 nM and an IC50 [2] of 200 to 1260 nM.

In the case of Cc1cccc(-c2[nH]cnc2-c2ccc3ncc(NCCN4CC5(CNC5)C4)cc3c2)n1 [Compound 709, N-[2-(2,6-diazaspiro[3.3]heptan-2-yl)ethyl]-6-[5-(6-methyl-2-pyridyl)-1H-imidazol-4-yl]quinolin-3-amine], the Ki [1] is reported as 0.0398 to 0.316 nM and the IC50 [2] is reported as 25.1 to 158 nM.

Cc1cccc(-c2[nH]cnc2-c2ccc3ncc(C4=CCC(C(=O)O[C@@H]5CCN(C)C5)CC4)cc3c2)n1 (stereo partly drawn) [Compound 710, [(3R)-1-methylpyrrolidin-3-yl] 4-[6-[5-(6-methyl-2-pyridyl)-1H-imidazol-4-yl]-3-quinolyl]cyclohex-3-ene-1-carboxylate] gave a Ki [1] of 0.0398 to 0.316 nM and an IC50 [2] of 25.1 to 158 nM.

Work on Cc1cccc(-c2[nH]cnc2-c2ccc3ncc(NCCN4CCC5(CCNC5)C4)cc3c2)n1 (stereo not shown) [Compound 711, N-[2-(2,7-diazaspiro[4.4]nonan-2-yl)ethyl]-6-[5-(6-methyl-2-pyridyl)-1H-imidazol-4-yl]quinolin-3-amine] yielded a Ki [1] of 0.0398 to 0.316 nM and an IC50 [2] of 200 to 1260 nM.

Work on Cc1cccc(-c2[nH]cnc2-c2ccc3ncc(NCCN4CCNC(C(=O)O)C4)cc3c2)n1 (stereo not shown) [Compound 712, 4-[2-[[6-[5-(6-methyl-2-pyridyl)-1H-imidazol-4-yl]-3-quinolyl]amino]ethyl]piperazine-2-carboxylic acid] yielded a Ki [1] of 0.0398 to 0.316 nM and an IC50 [2] of 200 to 1260 nM.

Compound Cc1cccc(-c2[nH]cnc2-c2ccc3ncc(C(=O)OCCCCN4CCCC4)cc3c2)n1 [Compound 714, 4-pyrrolidin-1-ylbutyl 6-[5-(6-methyl-2-pyridyl)-1H-imidazol-4-yl]quinoline-3-carboxylate] has a Ki [1] of 0.0398 to 0.316 nM and an IC50 [2] of 25.1 to 158 nM.

Cc1cccc(-c2[nH]cnc2-c2ccc3ncc(NCCN4CC5(CC(N)C5)C4)cc3c2)n1 [Compound 715, N-[2-(6-amino-2-azaspiro[3.3]heptan-2-yl)ethyl]-6-[5-(6-methyl-2-pyridyl)-1H-imidazol-4-yl]quinolin-3-amine] was tested, and the Ki [1] was 0.0398 to 0.316 nM and the IC50 [2] was 200 to 1260 nM.

Compound Cc1cccc(-c2[nH]cnc2-c2ccc3ncc(-c4ccc(C(=O)O[C@@H]5CCNC5)cc4)cc3c2)n1 [Compound 716, [(3R)-pyrrolidin-3-yl] 4-[6-[5-(6-methyl-2-pyridyl)-1H-imidazol-4-yl]-3-quinolyl]benzoate] has a Ki [1] of 0.0398 to 0.316 nM and an IC50 [2] of 25.1 to 158 nM.

Work on COC(=O)[C@@H]1CN(CCNc2cnc3ccc(-c4nc[nH]c4-c4cccc(C)n4)cc3c2)CCN1 [Compound 717, methyl (2S)-4-[2-[[6-[5-(6-methyl-2-pyridyl)-1H-imidazol-4-yl]-3-quinolyl]amino]ethyl]piperazine-2-carboxylate] yielded a Ki [1] of 0.0398 to 0.316 nM and an IC50 [2] of 25.1 to 158 nM.

Cc1cccc(-c2[nH]cnc2-c2ccc3ncc(-c4ccc(C(=O)O[C@H]5CCNC5)cc4)cc3c2)n1 [Compound 718, [(3S)-pyrrolidin-3-yl]4-[6-[5-(6-methyl-2-pyridyl)-1H-imidazol-4-yl]-3-quinolyl]benzoate] was tested, and the Ki [1] was 0.0398 to 0.316 nM and the IC50 [2] was 25.1 to 158 nM.

For Cc1cccc(-c2[nH]cnc2-c2ccc3ncc(-c4cncc(C(=O)O[C@H]5CCNC5)c4)cc3c2)n1 [Compound 719, [(3S)-pyrrolidin-3-yl] 5-[6-[5-(6-methyl-2-pyridyl)-1H-imidazol-4-yl]-3-quinolyl]pyridine-3-carboxylate], the Ki [1] was 0.0398 to 0.316 nM and the IC50 [2] was 200 to 1260 nM.

Compound Cc1cccc(-c2[nH]cnc2-c2ccc3ncc(-c4cnc5c(c4)CCNC5)cc3c2)n1 [Compound 721, 3-[6-[5-(6-methyl-2-pyridyl)-1H-imidazol-4-yl]-3-quinolyl]-5,6,7,8-tetrahydro-1,7-naphthyridine] has a Ki [1] of 0.0398 to 0.316 nM and an IC50 [2] of 25.1 to 158 nM.

For Cc1cccc(-c2[nH]cnc2-c2ccc3ncc(-c4ccc(C(=O)O[C@H]5CCN(C)C5)nc4)cc3c2)n1 [Compound 722, [(3S)-1-methylpyrrolidin-3-yl] 5-[6-[5-(6-methyl-2-pyridyl)-1H-imidazol-4-yl]-3-quinolyl]pyridine-2-carboxylate], the Ki [1] was 0.0398 to 0.316 nM and the IC50 [2] was < 20 nM.

Work on COC(=O)[C@H]1CNCCN1CCNc1cnc2ccc(-c3nc[nH]c3-c3cccc(C)n3)cc2c1 [Compound 723, methyl (2R)-1-[2-[[6-[5-(6-methyl-2-pyridyl)-1H-imidazol-4-yl]-3-quinolyl]amino]ethyl]piperazine-2-carboxylate] yielded a Ki [1] of 0.0398 to 0.316 nM and an IC50 [2] of 200 to 1260 nM.

In the case of Cc1cccc(-c2[nH]cnc2-c2ccc3ncc(C(=O)O[C@H]4CCN(C)C4)cc3c2)n1 [Compound 724, [(3S)-1-methylpyrrolidin-3-yl] 6-[5-(6-methyl-2-pyridyl)-1H-imidazol-4-yl]quinoline-3-carboxylate], the Ki [1] is reported as 0.398 to 3.16 nM and the IC50 [2] is reported as 25.1 to 158 nM.

Cc1cccc(-c2[nH]cnc2-c2ccc3ncc(-c4cncc(C(=O)O[C@@H]5CCNC5)c4)cc3c2)n1 [Compound 725, [(3R)-pyrrolidin-3-yl] 5-[6-[5-(6-methyl-2-pyridyl)-1H-imidazol-4-yl]-3-quinolyl]pyridine-3-carboxylate] showed a Ki [1] of 0.0398 to 0.316 nM and an IC50 [2] of 25.1 to 158 nM.

With Cc1cccc(-c2[nH]cnc2-c2ccc3ncc(-c4ccc5c(c4)C(N)CC5)cc3c2)n1 (stereo not shown) [Compound 726, 6-[6-[5-(6-methyl-2-pyridyl)-1H-imidazol-4-yl]-3-quinolyl]indan-1-amine] the Ki [1] was < 0.0316 nM and the IC50 [2] was 25.1 to 158 nM.

Cc1cccc(-c2[nH]cnc2-c2ccc3ncc(-c4nc5c(s4)CCNC5)cc3c2)n1 [Compound 727, 2-(6-(5-(6-methylpyridin-2-yl)-1H-imidazol-4-yl)quinolin-3-yl)-4,5,6,7-tetrahydrothiazolo[4,5-c]pyridine] was tested, and the Ki [1] was < 0.0316 nM and the IC50 [2] was < 20 nM.

Compound COC(=O)[C@@H]1CCCN(CCNc2cnc3ccc(-c4nc[nH]c4-c4cccc(C)n4)cc3c2)C1 [Compound 728, methyl (3R)-1-[2-[[6-[5-(6-methyl-2-pyridyl)-1H-imidazol-4-yl]-3-quinolyl]amino]ethyl]piperidine-3-carboxylate] has a Ki [1] of 0.0398 to 0.316 nM and an IC50 [2] of 25.1 to 158 nM.

COC(=O)[C@@H]1CCN(CCNc2cnc3ccc(-c4nc[nH]c4-c4cccc(C)n4)cc3c2)C1 [Compound 729, methyl (3R)-1-[2-[[6-[5-(6-methyl-2-pyridyl)-1H-imidazol-4-yl]-3-quinolyl]amino]ethyl]pyrrolidine-3-carboxylate] showed a Ki [1] of 0.0398 to 0.316 nM and an IC50 [2] of 25.1 to 158 nM.

Reference: patent publication US11590116B2 (THERAVANCE BIOPHARMA R&D IP, LLC, priority 2019, dated 2023)
